According to patent EP1724268A1, “COMPOUND HAVING TGF-BETA INHIBITORY ACTIVITY AND PHARMACEUTICAL COMPOSITION CONTAINING SAME” (KIRIN BEER KABUSHIKI KAISHA, priority 2004, dated 2005):

Test system: TGFβ signal
Assay: TGFβ signal inhibitory activity, (SBE)4-Luc reporter in A549 cells (Test Examples 1A and 1B)
Assay type: cell-based, human
Conditions: for TGFβ inhibition rate, %: compounds of Reference Examples (Test Example 1B); for inhibition at 3 µM / inhibition at 10 µM / inhibition at 1 µM: Homo sapiens, A549, TGFβ-1 2 ng/ml, 4 hr, Table 1A, read-out: TGFβ inhibition rate, %; for inhibition at 3 µM: test compound 3 µM; for inhibition at 10 µM: test compound 10 µM; for inhibition at 1 µM: test compound 1 µM
Experimental: Test Example 1A: TGFβ signal inhibitory activity (in vitro test) The compounds according to the present invention was evaluated for TGFβ signal inhibitory activity according to the method described in J. Boil .Chem., 273, 21145-21152 (1998). Specifically, a plasmid having four tandem binding sequences of Smad3, a TGF-beta signal transducer, to the upstream of a luciferases gene were used as a reporter plasmid ((SBE)4-Luc) to detect TGF-beta signal, This reporter gene was introduced into human pulmonary carcinoma epithelial cells (A549) (available from ATCC) to establish a stable cell line. A test compound and TGFβ-1 (2 ng/ ml) were added to the cells, and the mixture was cultured for 4 hr. In this case, the compounds according to the present invention synthesized in the Examples were used as the test compound. After the culture, the luciferase activity of the cells were measured by chemiluminescence (Steady Glo (trademark) luciferase assay system, available from Promega). Likewise, the luciferase activity was measured as a control against the culture of cells with the addition of TGFβ only and the culture of cells without the addition of both TGFβ and the test compound.
The TGFβ inhibition (%) was calculated by the following equation, based on the measurement results. TGFβ inhibition(%) = (A-B)/(A-C) × 100 [formula] wherein • A: luciferase activity with the addition of TGFβ1 and without the addition of test compound (relative luciferase unit), • B: luciferase activity with the addition of both TGFβ1 and test compound (relative luciferase unit), and • C: luciferase activity without the addition of both TGFβ1 and test compound (relative luciferase unit).
The test was carried out for each of test compound at the concentrations of 3 µM and 10 µM. For certain test compounds, the test was further carried out for test compound at the concentration of 1 µM.
For the compounds of Reference Examples, the TGFβ signal inhibitory activity was evaluated in the same manner as in Test Example 1A.

Molecule	TGFβ inhibition rate, % (3 µM) [%]	TGFβ inhibition rate, % (10 µM) [%]	inhibition at 3 µM [%]	inhibition at 10 µM [%]	inhibition at 1 µM [%]
4-(6-Fluoro-2-iodo-pyridin-3-yloxy)-6,7-dimethoxy-quinoline [Compound r211]	87	100			
Cc1cc(Oc2ccnc3ccccc23)c(-c2ccccn2)nc1C [Compound 1, 5,6-Dimethyl-3-(quinolin-4-yloxy)-[2,2']bipyridine]			100	100	
Cc1cc(Oc2ccnc3ccc(Br)cc23)c(-c2ccccn2)nc1C [Compound 2, 3-(6-Bromo-quinolin-4-yloxy)-5,6-dimethyl-[2,2']bipyridine]			100	100	
Cc1cc(Oc2ccnc3ccc(C(F)(F)F)cc23)c(-c2ccccn2)nc1C [Compound 3, 5,6-Dimethyl-3-(6-trifluoromethyl-quinolin-4-yloxy)-[2,2']bipyridine]			99		79
COc1ccc2nccc(Oc3cc(C)c(C)nc3-c3ccccn3)c2c1 [Compound 4, 3-(6-Methoxy-quinolin-4-yloxy)-5,6-dimethyl-[2,2']bipyridine]			100		94
Cc1cc(Oc2ccnc3ccc(-c4ccccc4)cc23)c(-c2ccccn2)nc1C [Compound 5, 5,6-Dimethyl-3-(6-phenyl-quinolin-4-yloxy)-[2,2']bipyridine]			79	100	
Cc1cc(Oc2ccnc3ccc(-c4cccnc4)cc23)c(-c2ccccn2)nc1C [Compound 6, 5,6-Dimethyl-3-(6-pyridin-3-yl-quinolin-4-yloxy)-[2,2']bipyridine]			100	100	
Cc1cc(Oc2ccnc3ccc(-c4ccncc4)cc23)c(-c2ccccn2)nc1C [Compound 7, 5,6-Dimethyl-3-(6-pyridin-4-yl-quinolin-4-yloxy)-[2,2']bipyridine]			100	100	
Cc1ccc(-c2ccc3nccc(Oc4cc(C)c(C)nc4-c4ccccn4)c3c2)cc1 [Compound 8, 5,6-Dimethyl-3-(6-p-tolyl-quinolin-4-yloxy)-[2,2']bipyridine]			60	100	
Cc1cc(Oc2ccnc3ccc(-c4ccccc4N)cc23)c(-c2ccccn2)nc1C [Compound 9, 2-[4-(5,6-Dimethyl-[2,2']bipyridin-3-yloxy)-quinolin-6-yl]-phenylamine]			87	100	
Cc1cc(Oc2ccnc3ccc(-c4cccc(N)c4)cc23)c(-c2ccccn2)nc1C [Compound 10, 3-[4-(5,6-Dimethyl-[2,2']bipyridin-3-yloxy)-quinolin-6-yl]-phenylamine]			100	100	
Cc1cc(Oc2ccnc3ccc(-c4cccc(O)c4)cc23)c(-c2ccccn2)nc1C [Compound 11, 3-[4-(5,6-Dimethyl-[2,2']bipyridin-3-yloxy)-quinolin-6-yl]-phenol]			100	100	
Cc1cc(Oc2ccnc3ccc(-c4ccc(O)cc4)cc23)c(-c2ccccn2)nc1C [Compound 12, 4-[4-(5,6-Dimethyl-[2,2']bipyridin-3-yloxy)-quinolin-6-yl]-phenol]			100	100	
Cc1cc(Oc2ccnc3cc(Cl)ccc23)c(-c2ccccn2)nc1C [Compound 13, 3-(7-Chloro-quinolin-4-yloxy)-5,6-dimethyl-[2,2']bipyridine]			99	100	
Cc1cc(Oc2ccnc3cc(Br)ccc23)c(-c2ccccn2)nc1C [Compound 14, 3-(7-Bromo-quinolin-4-yloxy)-5,6-dimethyl-[2,2']bipyridine]			100	100	
Cc1cc(Oc2ccnc3cc(C(F)(F)F)ccc23)c(-c2ccccn2)nc1C [Compound 15, 5,6-Dimethyl-3-(7-trifluoromethyl-quinolin-4-yloxy)-[2,2']bipyridine]			99	100	
